Legend:
Hey ovarian cancer cells = assay: Cell migration and invasion (small chamber) with MCM2 knockdown or overexpression; assay type: cell-based, human
Protocol: (§1) The night before collecting cells, small chambers were placed in a 24 well plate. A matrix gel was taken out from the −20° C. refrigerator and placed to melt naturally on ice. The thawed matrix gel was mixed with serum-free medium in a ratio of 1:5, and 100 μL of the mixture was added to each chamber. After preparation, the 24 well plate was placed in the incubator overnight. The next day, SKOV3 and Hey ovarian cancer cells in logarithmic growth phase were knocked down with MCM2 (Control group, sh-NC group, sh-MCM2 group) and overexpressed with MCM2 (Control group, OE-NC group, OE-MCM2 group). The original culture medium was discarded, washed with PBS buffer, and digested with 0.1% trypsin. A corresponding serum-free culture medium was added to prepare a cell suspension. Cells were counted using a hemocytometer and the cell concentration was quantified at 5×10^4 cells/mL. The 24 well plate was taken out and placed in a small chamber for a migration experiment and the 24 well plate with the matrix gel for an invasion experiment. 200 μL of a corresponding cell suspension was added to an upper chamber, and 700 μL of a corresponding culture medium containing 10% FBS was added to a lower chamber. The 24 well plate was further placed in an incubator for cultivation. The 24 well plate for the migration experiment was cultured for 24 hours before being taken out, while the 24 well plate for the invasion experiment was cultured for 48 hours before being taken out. The culture medium in the small chamber was poured out. The inside of the small chamber was cleaned with a cotton swab, and washed twice with the PBS buffer. The small chamber was fixed in 4% paraformaldehyde for 30 minutes, and stained in 1% crystal violet solution for 10 minutes after fixation. The small chamber was taken out, washed twice with the PBS buffer, dried with an absorbent paper, observed and counted under a microscope. The impact of CA, BDMC, and combined administration intervention on cell migration after knocking down MCM2 in SKOV3 and Hey ovarian cancer cells was shown in FIGS. 19A-19D. The scale in FIGS. 19A-19D was 10 μM; A represented the migration of SKOV3 cells; B represented the migration of Hey cells; C represented the invasion of SKOV3 cells; and D represented the invasion of Hey cells. Compared with the sh-NC group, ##P<0.01; compared with the sh-NC+CA+BDMC group, &&P<0.01; and ** P<0.01. The impact of CA, BDMC, and combined administration intervention on cell migration after overexpression of MCM2 on the SKOV3 and Hey ovarian cancer cells was shown in FIGS. 20A-20D. The scale in FIGS. 20A-20D was 10 μM, A represented the migration of SKOV3 cells; B represented the migration of Hey cells; C represented the invasion of SKOV3 cells; and D represented the invasion of Hey cells. Compared with the OE-NC group, ##P<0.01; compared with the OE-NC+CA+BDMC group, &&P<0.01; and compared with the OE-MCM2+CA+BDMC group, ΔP<0.05, ΔΔP<0.01; and ** P<0.01.

[1] = tested on: SKOV3 ovarian cancer cells; assay: as above; assay type: cell-based, human
Protocol: as §1

Hey ovarian cancer cell = assay: Tumor bearing nude mouse model (tumor volume, tumor inhibition rate, body weight); assay type: in vivo, BALB/c nude mice; conditions: intraperitoneal, 15 days; DDP 3 mg/kg, CA 80 mg/kg, BDMC 5 mg/kg; compared to the Control group, P<0.01
Protocol: Newly housed BALB/c nude mice were placed in an SPF grade feeding room laminar flow rack for adaptive feeding for one week, and the experimental animal status was adjusted. A Hey ovarian cancer cell was cultivated to the logarithmic growth stage, and the original culture medium was discarded. The Hey ovarian cancer cell was washed with PBS buffer, added with 0.1% trypsin digestion for digestion, added with the corresponding culture medium to terminate digestion, centrifuged at 1000 rpm for 3 minutes, and added with PBS buffer to prepare a cell suspension. The cell was counted using a hemocytometer, and the cell concentration was quantified to 5×10^7 cells/mL. After grasping and fixing the nude mouse with the left hand, and the skin at a needle inserting site on the right forelimb axilla of the nude mouse was disinfected with a 75% alcohol cotton ball. A disposable 1 mL syringe was used to inject approximately 100 μL of cell suspension subcutaneously into the posterior axilla of the right forelimb in an oblique stabbing inserting needle mode, so that each nude mouse was injected with approximately 5×10^6 cells. After vaccination, the needle inserting site was gently pressed with a cotton ball to prevent the cell suspension from leaking from a needle hole. The growth status of tumors at the vaccination site of nude mice was observed daily. After about one week, if the tumors at the vaccination site were compacted and appeared light red in color, it could be considered as successful tumor growth. At this time, the nude mice were randomly divided into 5 groups, a Control group intraperitoneally injected with physiological saline for 1 day each time; a DDP group intraperitoneally injected with cisplatin, 3 mg/kg, 3 d/time; a CA group intraperitoneally injected with CA, 80 mg/kg, 1 d/time; a BDMC group intraperitoneally injected with BDMC, 5 mg/kg, 1 d/time; a CA+BDMC group intraperitoneally injected with CA 80 mg/kg+BDMC 5 mg/kg, 1 d/time, 8 animals per group. A tumor length (L) and a […] were measured with a vernier caliper every 3 days to calculate a tumor volume. After 15 days of administration, nude mice were euthanized by dislocation of cervical vertebra, and tumor tissue was dissected. The tumor weight was weighed to calculate the tumor inhibition rate. The tumor tissue was stored in two batches at −80° C. and fixed with 4% paraformaldehyde.

[2] = Hey OE-MCM2 cells (MCM2 overexpression), vs OE-MCM2 group
[3] = Hey OE-NC cells (empty vector), vs OE-NC group
[4] = Hey sh-MCM2 cells (MCM2 knockdown), vs sh-MCM2 group
[5] = Hey sh-NC cells (empty vector), vs sh-NC group
[6] = SKOV3 OE-MCM2 cells (MCM2 overexpression), vs OE-MCM2 group
[7] = SKOV3 OE-NC cells (empty vector), vs OE-NC group
[8] = SKOV3 sh-MCM2 cells (MCM2 knockdown), vs sh-MCM2 group
[9] = SKOV3 sh-NC cells (empty vector), vs sh-NC group

COc1ccc(-c2coc3cc(O)ccc3c2=O)cc1O [CA, calycosin]
no significant change: number of the invading cells (Hey ovarian cancer cells; [2]) | number of the migrating cells (Hey ovarian cancer cells; [2]) | number of the invading cells (Hey ovarian cancer cells; [4]) | number of the migrating cells (Hey ovarian cancer cells; [4]) | number of the invading cells [1, 6] | number of the migrating cells [1, 6] | number of the invading cells [1, 8] | number of the migrating cells [1, 8]
significantly reduced: number of the invading cells (Hey ovarian cancer cells; [3]) | number of the migrating cells (Hey ovarian cancer cells; [3]) | number of the invading cells (Hey ovarian cancer cells; [5]) | number of the migrating cells (Hey ovarian cancer cells; [5]) | number of the invading cells [1, 7] | number of the migrating cells [1, 7] | number of the invading cells [1, 9] | number of the migrating cells [1, 9] | tumor volume size (Hey ovarian cancer cell)
significantly increased: tumor inhibition rate (Hey ovarian cancer cell)
